Test results taken from PMC8546421, “Molecular modelling of the FOXO4-TP53 interaction to design senolytic peptides for the elimination of senescent cancer cells” (EBioMedicine, 2021).
Where no end group is shown, it is not given here.

Tests used:
A375 cells = assay: Annexin V live cell stain, kinetics of apoptosis; type: cell-based, human; conditions: 8 µM ES2, A375 cells, linear regression comparison p<0.001
[1] = test system: Braf/Pten sporadic melanomas; assay: TUNEL staining of melanomas in transgenic mice; type: in vivo, mouse; conditions: intratumoural injection daily over two days; single agents vs saline
Method: Fixed frozen sections of melanomas were stained with the Click-IT Plus TUNEL assay (ThermoFisher C10618) according to the manufacturer's protocol. Stained sections were imaged with a Zeiss A2 upright microscope at either 20x or 10x. At least one of each treatment group were stained and imaged at the same time. All sections from each staining group were set to the same exposure time for TUNEL and DAPI. Any normalization of background levels was performed in Adobe Photoshop and set to the same scale for the entire image and for all other images.

FOXO4-TP53 foci = assay: Proximity Ligation Assay; type: cell-based, human; conditions: 8 µM ES2, 1 hour
Method: Senescent and dividing A375 cells were plated in 96-well plates (Cellvis P96-1.5P) at concentration of 20,000 cells per well. The following day, the cells were treated with 8 µM ES2 for 0, 1, and 4 hours. The plate was then fixed with 4% paraformaldehyde for 10 minutes at room temperature. Cells were washed with PBS twice then permeabilized with 0.1% Triton™ X-100 in PBS for 15 minutes. The duolink® In Situ Red Starter Kit Mouse/Rabbit was then used according to manufacturer's protocol with exception of 1:10 dilution of PLUS and MINUS PLA probes. Primary antibodies used were FOXO4 (Cell Signaling Technology Cat# 9472, RRID:AB_10831833, diluted 1:1000), TP53BP1 (BD Biosciences Cat# 612523, RRID:AB_399824, diluted 1:2000), and TP53 (Santa Cruz Cat# sc-126, RRID:AB_628082, diluted 1:500). Z-stacks with 0.34 um steps were captured on a Zeiss Axio Observer Z.1 inverted microscope using a Plan-Apochromat 40 × 0.95 NA lens. The system is setup for widefield fluorescence imaging using a Colibri 7 LED source and a Hamamatsu Orca-flash 4.0 LT black and white camera. The widefield z-stacks were flattened into maximum intensity projections as a pre-processing step before the analysis. Fluorescent foci were counted using the Zeiss Zen software Analysis feature. Briefly, the DAPI staining was used to define the nuclear regions. […] The total number of foci per nucleus was recorded.

[2] = test system: PMAIP1 (NOXA) and BBC3 (PUMA); assay: ddPCR of TP53 target genes; type: cell-based, human
Method: Primers and probes were designed specifically for ddPCR for human BBC3 (Bio-Rad Cat# 10031255, Assay ID dHsaCPE5034069) and PMAIP1(Bio-Rad Cat# 10031252, Assay ID dHsa5037552) genes. RNA was extracted using the Qiagen RNeasy Kit (Cat# 74004). 5 ng of RNA was used for 22 µl PCR reaction mixtures using the One-Step RT-ddPCR Advanced Kit for Probes (Bio-Rad Cat# 1864022) following the manufacturer's protocol. ddPCR droplets were generated using the Bio-Rad Automated Droplet Generator. Plate containing ddPCR droplets was sealed and RT-PCR was performed using the C-1000 Thermal Cycler (Bio-Rad). ddPCR was performed in the QX200 Droplet Digital PCR System (Bio-Rad). Analysis of the ddPCR data was performed using QX200 analysis software.

[3] = test system: dividing A375 human melanoma cells; assay: Survival study, orthotopic A375 xenograft; type: in vivo, mouse; conditions: local injection once daily for two days
Text: Mice were aged between 3-8 months and 20-30 g in weight and were housed in specific pathogen free cages. Animals were randomly distributed among treatment groups by assigning mice within the same cage to different treatment regimens. To minimise confounders, mouse treatment order was randomised within each cage. Male and female mice were distributed between all treatment groups since the chemicals used were directly injected and are not metabolized. Researchers were not blinded to the group allocation, but all attempts were made to analyse the data without knowing treatment conditions. NOD.Cg-Prkdcscid Il2rgtm1Wjl/SzJ (NSG) were purchased from The Jackson Laboratory (IMSR Cat# JAX:005557, RRID:IMSR_JAX:005557). NOD.Cg-KitW-41J Tyr + Prkdcscid Il2rgtm1Wjl/ThomJ (NBSGW) were purchased from The Jackson Laboratory (IMSR Cat# JAX:026622, RRID:IMSR_JAX:026622). Immunocompromised mice used for these experiments were all in the NSG background; however, some mice were F1 generation of NSG x NBSGW, thus the brown coat colour as NBSGW mice have tyrosinase. Xenografts containing senescent cells were established by injecting A375-Luc/iRFP human melanoma cells which contained a luciferase expressing gene into immunocompromised NSG ears. Senescence was induced in the cells via doxorubicin treatment (40 nM) then resuspended in DMEM prior to injection. Each ear was then injected with 50 µL containing approximately 1,000,000 cells. The ears were treated once daily for two days with 50 µL of either 5 mg/mL peptide, or saline. To control for confounders, each mouse contained one ear treated with saline (control). For imaging, mice were injected with 3 mg luciferin intravenously and imaged before and after treatment. Transgenic mice (BrafCA, PtenloxP, Tyr::CreERT2) were purchased from The Jackson Laboratory (IMSR Cat# JAX:013590, RRID:IMSR_JAX:013590). These mice were maintained on a C57Bl6 background and all experimental mice contained Tyr::CreER with either Braf^CA/+, Pten^fx/+; Braf^CA/CA, Pten^fx/+, or Braf^CA/+, Pten^fx/fx. […] Hypopigmented melanomas sporadically formed over the next 3-5 months, typically on the back of the mouse. These melanomas were then directly injected with 100 µL of either 20 mg/mL ES2+10%DMSO, saline+10%DMSO, saline+10%Dabrafenib, or 20 mg/mL ES2+10%Dabrafenib. The researchers were not blinded to the experiment, but each mouse contained an internal control and all imaging was done with the same exposure times based upon control tissue. For survival analyses, either 750,000 or 25,000 A375-Luc/iRFP cells were injected intradermally into NSG mice. […] Mice were then monitored daily and allowed to age until a humane endpoint was reached according to our IACUC protocol, which in this case was tumours of 2 cm in size. […]

PRKGGRRRRAWGRRRRRRRRRRRRRRAPRKRLTLA [ES2]
rate of apoptosis, senescent compared to dividing cells (A375 cells): four-fold | effect on apoptosis (TUNEL), in words [1]: no difference | effect on FOXO4-TP53 foci in dividing cells (FOXO4-TP53 foci; dividing A375 cells): no effect on FOXO4-TP53 foci in dividing cells | reduction of FOXO4-TP53 foci in senescent cells (FOXO4-TP53 foci; senescent A375 cells): 2 fold | NOXA and PUMA levels in senescent cells ([2]; 30 minutes after ES2 treatment, n=6, p<0.001): significant increase in levels | NOXA and PUMA levels in dividing cells ([2]; dividing cells): no response | effect on survival time, in words ([3]; 25,000 A375 cells): no effect on survival time | effect on survival time, in words ([3]; 750,000 A375 cells): did not alter survival times
